pIC50: −log10 of the molar value.

One assay in a line: GPR35 antagonists, SAR follow-up, imaging, image-based, set 2 (AID 2480).
Conditions: not given
The pIC50 is the IC50 on a negative log10 scale, so that one unit is a factor of ten. A lower pIC50 goes with a high IC50. The compound `O=C(CCCN1C(=O)/C(=C/c2ccccc2)SC1=S)Nc1ccc(O)cc1` [N-(4-hydroxyphenyl)-4-[(5Z)-4-oxo-5-(phenylmethylene)-2-sulfanylidene-3-thiazolidinyl]butanamide] had a negative-log IC50 (pIC50) of 5.06. The same measure, in the same setting: next, `CCc1ccc(/C=C2\SC(=S)N(CCCC(=O)Nc3ccc(C(=O)O)cc3)C2=O)cc1` [SMR000646238]: 7.14; `O=C(CCCN1C(=O)/C(=C/c2ccc3c(c2)OCO3)SC1=S)Nc1ccc(C(=O)O)cc1` [SMR000664854]: 5.93; `CCOC(=O)c1ccc(NC(=O)CCCN2C(=O)/C(=C/c3ccccc3)SC2=S)cc1` [ethyl 4-[4-[(5Z)-5-benzylidene-4-oxo-2-sulfanylidene-1,3-thiazolidin-3-yl]butanoylamino]benzoate]: 5.06.

With `COC(=O)CSc1nc2ccc(NC(=O)c3ccccc3C(=O)N3CCOCC3)cc2s1` [methyl 2-[[6-[(2-morpholin-4-ylcarbonylphenyl)carbonylamino]-1,3-benzothiazol-2-yl]sulfanyl]ethanoate], the pIC50 is under 4.49.

The same assay, now with this note: inactive by the depositor's call.
On to `Cc1nc(N2CCC(C)CC2)c2c(C)c(C(=O)Nc3ccccc3C(F)(F)F)sc2n1` [SMR000312025], for which the pIC50 was 4.99.
